# Source: US11028088B2, “Modulators of BTK proteolysis and methods of use” (Yale University, priority 2018, dated 2021)
# Structures can show the parent of a compound that is named as a salt.
# Biological target: C481S BTK (Homo sapiens, UniProt Q06187, C481S)
# Assay: In vitro kinase inhibition, recombinant C481S BTK, 10 μM ATP
# C481S BTK, sequence (Q06187 whole entry C481S): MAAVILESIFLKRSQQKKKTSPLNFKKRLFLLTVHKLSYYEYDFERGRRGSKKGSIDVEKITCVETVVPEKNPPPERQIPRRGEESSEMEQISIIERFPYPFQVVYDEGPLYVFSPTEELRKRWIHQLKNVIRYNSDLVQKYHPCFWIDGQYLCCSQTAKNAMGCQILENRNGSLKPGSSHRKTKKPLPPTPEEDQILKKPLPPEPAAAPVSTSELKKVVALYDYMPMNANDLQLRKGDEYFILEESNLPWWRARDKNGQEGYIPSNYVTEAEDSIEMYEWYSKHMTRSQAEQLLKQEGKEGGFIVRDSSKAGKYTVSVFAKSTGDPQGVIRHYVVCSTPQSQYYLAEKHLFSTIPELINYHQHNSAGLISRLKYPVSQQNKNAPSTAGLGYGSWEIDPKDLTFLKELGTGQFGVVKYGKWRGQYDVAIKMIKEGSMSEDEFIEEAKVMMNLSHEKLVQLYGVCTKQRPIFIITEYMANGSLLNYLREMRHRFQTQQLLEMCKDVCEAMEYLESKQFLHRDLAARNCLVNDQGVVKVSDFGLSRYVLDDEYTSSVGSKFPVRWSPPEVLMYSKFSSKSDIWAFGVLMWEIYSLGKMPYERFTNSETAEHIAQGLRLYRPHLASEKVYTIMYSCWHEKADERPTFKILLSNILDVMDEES
structure (smiles),measurement,value
"Nc1ncnc2c1c(-c1ccc(Oc3ccccc3)cc1)nn2C1CCNCC1 [compound 1, 3-(4-phenoxyphenyl)-1-(piperidin-4-yl)-1H-pyrazolo[3,4-d]pyrimidin-4-amine hydrochloride, reference compound]",inhibition potency against C481S mutant BTK,retained inhibition potency
